# US7576094B2, “Spiro derivatives as lipoxygenase inhibitors” (Eli Lilly and Company, priority 2004, dated 2009)
# Tested on: dopaminergic neuronal cell line
# Assay: High Glutamate-Induced Oxidative Stress Assay (HGOS)
# Type: cell-based
# Details: Mus musculus; 30 mM glutamate, 16 h, Cell Tracker Green; read-out: protection against HGOS cell injury and cell death with an EC50
# Text: Protection against redox stress can be evaluated in cell culture using high glutamate induced oxidative stress (HGOS) in mouse dopaminergic cell lines. The cytotoxic effect of glutamate is not due to excitotoxicity, as this cell line is devoid of inotropic glutamate receptors. Rather, the glutamate-induced toxicity of dopaminergic cells is associated with an inhibition of cystne transport which subsequently leads to depletion of intracellular glutathione (GSH) levels (Murphy T. H., et al. Neuron, Vol. 2 (1989), pp. 1547-1558), activation of neuronal 12-Lipoxygenase (Li, Y. et al. Neuron, Vol. 19 (1997), pp. 453-463), increased ROS production (Tan S. et al. J. Cell Biol., Vol. 141 (1998), pp. 1423-1432) and elevated intracellular Ca^2+ (Li, Y. et al. see supra). Some molecules were measured for their ability to protect cells against glutamate-induced stress and the assay is detailed in Examples.
# This procedure was used to induce high glutamate-induced oxidative stress (HGOS) in a dopaminergic neuronal cell line. Using this assay the potency and efficacy of test articles against HGOS neuronal cell injury and cell death was established in a high throughput manner.
# • Dopaminergic neuronal cell lines • DMEM-No Glucose (Life Technologies Cat # 11966-025) • L-glutamine (Life Technologies Cat # 25030-081) • L-glutamic acid, monosodium salt (Sigma Cat # G5889) • D-glucose (Sigma Cat # G-6151) • 10×HBSS buffer(pH 7.4) (950 mL Pyrogen-free water, 2.44 g/L MgCl2.6H20, 3.73 g/L KCl, 59.58 g/L Hepes, 58.44 g/L NaCI, 1.36 g/L KH2PO4, 1.91 g/L CaCl2.2H2O and pH to […] with HCl) • Cell Tracker Green fluorescent dye (Molecular Probes, Cat # 2925). Prepare a 5 μM solution in pre-warmed HBSS just prior to use. • Sterile 96-well plates pre-coated with poly-D-lysine (Corning Catalog # 3665) • 96-well deep well mother plate, DyNA Block 1000 (VWR Catalog # 40002-008) Neuronal Cells
# The cells were seeded into 96-well plates at a density of 2000 per well and left to grow for 72 hours in a 33° C. incubator with 5% CO2 in air atmosphere. […]
row,SMILES,EC50
1,"Cc1c(C)c2c(c(Cl)c1O)CCC1(CCC1)O2 [5-chloro-7,8-dimethyl-3,4-dihydrospiro[chromene-2,1′-cyclobutan]-6-ol]",< 1 µM
2,"Cc1c(C)c2c(c(C)c1O)CCC1(CC1)O2 [5,7,8-trimethyl-3,4-dihydrospiro[chromene-2,1′-cyclopropan]-6-ol]",< 1 µM
3,"Cc1c(C)c2c(c(C)c1O)C1(CCC1)CCS2 [5′,7′,8′-trimethyl-2′,3′-dihydrospiro[cyclobutane, 1,4′-thiochromen]-6′-ol]",< 1 µM
